Activity calls are given as the source filed them.
Columns and labels:
[1] = system: Streptococcus sp. 'group A'; assay: growth inhibition of control SK(-) GAS strain, dose response, counter-screen for streptokinase expression inhibitor project, luminescence, kanamycin, BacTiterGlo, confirmation (AID 1900); type: functional, organism-based
[2] = molecular target: T1, Short transient receptor potential channel 4 (Mus musculus, UniProt Q9QUQ5); assay: mouse TRPC4 channel inhibitors, dose response, cell-based, HEK293 TRPC4/mu-opioid, Fluo-4 calcium (AID 434942); type: functional;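 also: potency of inhibitors blocking the TRPC4 calcium response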
T1 sequence (Q9QUQ5 whole entry): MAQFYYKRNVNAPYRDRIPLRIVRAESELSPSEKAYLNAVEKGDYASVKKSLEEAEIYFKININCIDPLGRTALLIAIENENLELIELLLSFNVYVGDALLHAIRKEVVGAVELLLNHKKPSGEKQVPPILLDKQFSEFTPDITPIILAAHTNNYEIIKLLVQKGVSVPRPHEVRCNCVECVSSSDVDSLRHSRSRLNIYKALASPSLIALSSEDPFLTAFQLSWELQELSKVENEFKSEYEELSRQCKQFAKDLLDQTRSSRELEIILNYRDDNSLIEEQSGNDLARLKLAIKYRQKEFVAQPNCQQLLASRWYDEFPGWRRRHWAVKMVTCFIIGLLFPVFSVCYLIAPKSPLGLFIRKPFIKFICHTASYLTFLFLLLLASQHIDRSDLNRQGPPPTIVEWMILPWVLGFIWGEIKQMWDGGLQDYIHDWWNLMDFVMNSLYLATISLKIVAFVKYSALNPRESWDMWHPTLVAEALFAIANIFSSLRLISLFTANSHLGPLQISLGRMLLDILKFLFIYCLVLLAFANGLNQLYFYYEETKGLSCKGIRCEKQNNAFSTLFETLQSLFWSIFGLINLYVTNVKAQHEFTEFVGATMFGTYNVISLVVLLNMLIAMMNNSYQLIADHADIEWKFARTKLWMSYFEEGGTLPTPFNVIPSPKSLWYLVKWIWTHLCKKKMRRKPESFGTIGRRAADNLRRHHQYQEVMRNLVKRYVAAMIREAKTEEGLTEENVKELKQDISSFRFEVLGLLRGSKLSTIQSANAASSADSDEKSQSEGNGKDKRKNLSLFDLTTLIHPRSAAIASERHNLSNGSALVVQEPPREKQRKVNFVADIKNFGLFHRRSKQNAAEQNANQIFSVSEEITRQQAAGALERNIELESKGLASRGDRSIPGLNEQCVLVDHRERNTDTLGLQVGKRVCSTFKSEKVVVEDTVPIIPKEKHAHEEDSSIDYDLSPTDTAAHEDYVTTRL

[3] = Vero E6 cell cytotoxicity, dose response, cytotoxicity control for non-replicating M. tuberculosis project, secondary assay (AID 492998); type: functional, VeroE6; conditions: Vero C1008
Streptococcus = assay: Group A Streptococcus viability loss, dose response, counter-screen for streptokinase expression inhibitor project, luminescence, BacTiterGlo (AID 1915); type: functional, organism-based;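 also: potency for reduction of bacterial viability or growth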
[4] = THP-1 cell cytotoxicity, dose response, cytotoxicity control for non-replicating M. tuberculosis project (AID 489025); type: functional
cells = type: functional
Streptokinase A = molecular target: T2, Streptokinase A (Streptococcus pyogenes serotype M1, UniProt P10520); assay: S. pyogenes streptokinase expression inhibitors, potency, dose response, plasminogen activation absorbance, OD405 (AID 1914); type: functional, Streptococcus pyogenes M1 GAS;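 also: secreted streptokinase activity via plasminogen activation per viability signal from cell pellet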
T2 sequence (P10520 whole entry): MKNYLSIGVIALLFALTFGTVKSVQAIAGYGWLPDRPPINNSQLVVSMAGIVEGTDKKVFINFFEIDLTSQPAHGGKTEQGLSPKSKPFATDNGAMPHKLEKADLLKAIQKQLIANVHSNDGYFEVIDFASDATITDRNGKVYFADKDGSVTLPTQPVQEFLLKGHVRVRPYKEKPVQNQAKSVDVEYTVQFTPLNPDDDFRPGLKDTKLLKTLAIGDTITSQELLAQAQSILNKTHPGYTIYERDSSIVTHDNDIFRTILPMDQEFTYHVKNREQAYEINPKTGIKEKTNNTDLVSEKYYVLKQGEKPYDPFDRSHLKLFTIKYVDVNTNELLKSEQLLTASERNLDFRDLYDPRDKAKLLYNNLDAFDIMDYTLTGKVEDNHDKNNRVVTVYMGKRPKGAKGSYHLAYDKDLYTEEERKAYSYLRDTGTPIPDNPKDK

Beta-galactosidase = Beta-galactosidase (Escherichia coli, UniProt Q8VNN2); assay: PubChem AID 485352; type: functional
[5] = molecular target: DNA dC->dU-editing enzyme APOBEC-3G (Homo sapiens, UniProt Q9HC16); assay: Dose Response confirmation of small molecule APOBEC3G DNA Deaminase Inhibitors via a fluorescence-based single-stranded DNA deaminase assay. [Related pubchem assays (depositor defined):AID493012, AID493028]; type: functional
[6] = cytotoxicity toward NIH3T3 fibroblasts, dose response, counter-screen, cell-based, ATP luminescence, mouse fibroblasts (AID 2010); type: functional;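 also: cells exposed to compound for about 90 hours before reading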
[7] = inhibitors of intracellular T. cruzi replication, confirmation, NIH3T3 host cells, beta-gal luminescence (AID 2044); type: functional, cell-based;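 also: intracellular parasites grown in NIH/3T3 mouse fibroblasts as host cells; luminescent beta-galactosidase reporter signal from transgenic T. cruzi replicating inside host cells; inhibitors lower the luminescence signal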
INS1 = assay: beta cell apoptosis inhibitors, cytokine rescue, dose response, luminescence, retest (AID 449756); type: functional, cell-based; conditions: Rattus norvegicus;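 also: cell death triggered by IL-1 beta plus TNF-alpha plus IFN-gamma mixture; protective hits raise ATP signal compared with cytokine alone wells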
[8] = molecular target: T3, Type-1 angiotensin II receptor (Homo sapiens, UniProt P30556); assay: AT1 receptor antagonists, dose response, selectivity assay for APJ receptor antagonist project, cell-based, uHTS hits (AID 463214); type: functional;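 also: antagonist potency against angiotensin II stimulated AT1 response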
T3 sequence (P30556 whole entry): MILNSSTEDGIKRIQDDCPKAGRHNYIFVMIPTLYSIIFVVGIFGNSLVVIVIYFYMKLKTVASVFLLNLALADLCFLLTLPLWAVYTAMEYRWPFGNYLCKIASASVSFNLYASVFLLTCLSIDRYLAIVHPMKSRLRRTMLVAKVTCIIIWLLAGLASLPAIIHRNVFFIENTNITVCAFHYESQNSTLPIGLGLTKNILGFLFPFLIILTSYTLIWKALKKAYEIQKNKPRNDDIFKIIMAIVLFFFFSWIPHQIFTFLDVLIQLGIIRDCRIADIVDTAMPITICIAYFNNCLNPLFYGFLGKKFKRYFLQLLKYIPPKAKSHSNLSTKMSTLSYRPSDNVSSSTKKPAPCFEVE

[9] = molecular target: T1, Short transient receptor potential channel 4; assay: mouse TRPC4 channel activators, dose response, cell-based, HEK293 TRPC4/mu-opioid, Fluo-4 calcium (AID 434937); type: functional
[10] = molecular target: T4, High affinity choline transporter 1 (Homo sapiens, UniProt Q9GZV3); assay: CHT inhibitors, dose response, cell-based, 5-point CRC, membrane potential dye (AID 504840); type: functional
T4 sequence (Q9GZV3 whole entry): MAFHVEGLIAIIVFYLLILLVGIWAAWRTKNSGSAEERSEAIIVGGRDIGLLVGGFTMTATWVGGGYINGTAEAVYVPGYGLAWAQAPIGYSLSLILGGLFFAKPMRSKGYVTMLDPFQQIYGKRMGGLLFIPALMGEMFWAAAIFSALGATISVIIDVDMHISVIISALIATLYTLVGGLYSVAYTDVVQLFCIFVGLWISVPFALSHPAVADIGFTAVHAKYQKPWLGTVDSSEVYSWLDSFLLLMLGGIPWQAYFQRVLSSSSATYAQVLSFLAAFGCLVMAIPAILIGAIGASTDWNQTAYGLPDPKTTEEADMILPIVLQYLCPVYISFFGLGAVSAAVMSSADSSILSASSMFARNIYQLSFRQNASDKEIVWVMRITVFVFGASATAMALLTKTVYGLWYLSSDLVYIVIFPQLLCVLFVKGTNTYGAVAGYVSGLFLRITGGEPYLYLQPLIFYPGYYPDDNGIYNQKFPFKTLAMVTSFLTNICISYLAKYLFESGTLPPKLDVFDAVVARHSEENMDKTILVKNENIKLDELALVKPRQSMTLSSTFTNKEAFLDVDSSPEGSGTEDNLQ

[11] = Vero cell cytotoxicity, dose response, cytotoxicity control for Vif-APOBEC3G degradation inhibitor project, Vero cells (AID 1117358); type: functional; conditions: Human immunodeficiency virus 1, Vero
[12] = microbe, parasite or virus in culture; type: functional; conditions: Mycobacterium tuberculosis
CAAX prenyl protease 2 [13] = molecular target: T5, CAAX prenyl protease 2 (Saccharomyces cerevisiae S288c, UniProt Q03530); type: biochemical
T5 sequence (Q03530 whole entry): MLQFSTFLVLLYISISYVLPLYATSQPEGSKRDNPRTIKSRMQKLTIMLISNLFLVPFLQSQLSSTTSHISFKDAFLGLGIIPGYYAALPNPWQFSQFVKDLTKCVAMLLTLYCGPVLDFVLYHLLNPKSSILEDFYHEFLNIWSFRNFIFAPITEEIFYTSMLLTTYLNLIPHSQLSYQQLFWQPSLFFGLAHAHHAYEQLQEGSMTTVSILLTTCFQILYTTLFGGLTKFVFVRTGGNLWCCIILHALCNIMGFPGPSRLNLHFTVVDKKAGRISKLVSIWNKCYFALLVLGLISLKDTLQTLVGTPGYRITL

CAAX prenyl protease 2 [14] = molecular target: T6, CAAX prenyl protease 2 (Homo sapiens, UniProt Q9Y256); assay: human Rce1 protease inhibitors, dose response, biochemical, yeast membranes, quenched-peptide fluorescence, cherry-pick (AID 588849)
T6 sequence (Q9Y256 whole entry): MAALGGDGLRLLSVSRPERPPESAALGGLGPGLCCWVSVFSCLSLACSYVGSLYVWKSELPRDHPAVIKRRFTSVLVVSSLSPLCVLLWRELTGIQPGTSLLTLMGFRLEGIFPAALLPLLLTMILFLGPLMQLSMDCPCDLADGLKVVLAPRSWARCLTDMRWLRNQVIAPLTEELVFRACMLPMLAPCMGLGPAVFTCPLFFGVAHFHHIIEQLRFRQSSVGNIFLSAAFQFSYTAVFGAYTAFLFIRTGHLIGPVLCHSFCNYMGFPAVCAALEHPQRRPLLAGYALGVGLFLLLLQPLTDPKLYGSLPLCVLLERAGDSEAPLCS

[15] = molecular target: G-protein coupled receptor 55 (Homo sapiens, UniProt Q9Y2T6); assay: GPR55 agonists via beta-arrestin recruitment, primary screen, imaging, U2OS cells, beta-arrestin-GFP redistribution (AID 1961); type: functional
[16] = molecular target: Eukaryotic translation initiation factor 4E (Mus musculus, UniProt P63073); assay: eIF4E–eIF4G protein interaction inhibitors, dose response, biochemical, TR-FRET (AID 855); type: functional;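 also: potency for disrupting eIF4E binding to eIF4GI seen as loss of FRET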
[17] = HEp-2 cell cytotoxicity, dose response, cytotoxicity control for RSV inhibitor project, HTS (AID 2410); type: functional; conditions: human respiratory syncytial virus
[18] = molecular target: T7, Heat shock factor protein 1 (Mus musculus, UniProt P38532); assay: HSF1 potentiators in luciferase reporter cells, confirmation, cell-based, NIH3T3, luminescence, dose retest (AID 435004); type: functional;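 also: stress induced by proteasome inhibitor MG132 added 30 min after compound; luciferase reporter driven by HSF1 response element in NIH3T3 cells; actives raise luminescence as potentiators of the MG132 stress response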
T7 sequence (P38532 whole entry): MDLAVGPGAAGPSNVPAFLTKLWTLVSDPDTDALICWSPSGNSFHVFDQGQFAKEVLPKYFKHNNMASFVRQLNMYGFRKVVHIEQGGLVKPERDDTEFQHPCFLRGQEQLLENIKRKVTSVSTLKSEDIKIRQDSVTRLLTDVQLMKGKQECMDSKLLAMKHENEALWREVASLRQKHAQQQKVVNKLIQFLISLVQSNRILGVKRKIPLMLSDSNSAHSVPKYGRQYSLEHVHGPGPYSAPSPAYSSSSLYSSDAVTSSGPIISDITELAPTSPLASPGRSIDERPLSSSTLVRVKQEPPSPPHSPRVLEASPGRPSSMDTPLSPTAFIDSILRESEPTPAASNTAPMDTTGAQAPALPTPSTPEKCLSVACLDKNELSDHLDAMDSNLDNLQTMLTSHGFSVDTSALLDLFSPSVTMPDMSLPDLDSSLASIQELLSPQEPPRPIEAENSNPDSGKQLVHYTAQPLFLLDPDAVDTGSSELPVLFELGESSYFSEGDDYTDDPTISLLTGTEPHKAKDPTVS

Beta-galactosidase, sequence (Q8VNN2 whole entry): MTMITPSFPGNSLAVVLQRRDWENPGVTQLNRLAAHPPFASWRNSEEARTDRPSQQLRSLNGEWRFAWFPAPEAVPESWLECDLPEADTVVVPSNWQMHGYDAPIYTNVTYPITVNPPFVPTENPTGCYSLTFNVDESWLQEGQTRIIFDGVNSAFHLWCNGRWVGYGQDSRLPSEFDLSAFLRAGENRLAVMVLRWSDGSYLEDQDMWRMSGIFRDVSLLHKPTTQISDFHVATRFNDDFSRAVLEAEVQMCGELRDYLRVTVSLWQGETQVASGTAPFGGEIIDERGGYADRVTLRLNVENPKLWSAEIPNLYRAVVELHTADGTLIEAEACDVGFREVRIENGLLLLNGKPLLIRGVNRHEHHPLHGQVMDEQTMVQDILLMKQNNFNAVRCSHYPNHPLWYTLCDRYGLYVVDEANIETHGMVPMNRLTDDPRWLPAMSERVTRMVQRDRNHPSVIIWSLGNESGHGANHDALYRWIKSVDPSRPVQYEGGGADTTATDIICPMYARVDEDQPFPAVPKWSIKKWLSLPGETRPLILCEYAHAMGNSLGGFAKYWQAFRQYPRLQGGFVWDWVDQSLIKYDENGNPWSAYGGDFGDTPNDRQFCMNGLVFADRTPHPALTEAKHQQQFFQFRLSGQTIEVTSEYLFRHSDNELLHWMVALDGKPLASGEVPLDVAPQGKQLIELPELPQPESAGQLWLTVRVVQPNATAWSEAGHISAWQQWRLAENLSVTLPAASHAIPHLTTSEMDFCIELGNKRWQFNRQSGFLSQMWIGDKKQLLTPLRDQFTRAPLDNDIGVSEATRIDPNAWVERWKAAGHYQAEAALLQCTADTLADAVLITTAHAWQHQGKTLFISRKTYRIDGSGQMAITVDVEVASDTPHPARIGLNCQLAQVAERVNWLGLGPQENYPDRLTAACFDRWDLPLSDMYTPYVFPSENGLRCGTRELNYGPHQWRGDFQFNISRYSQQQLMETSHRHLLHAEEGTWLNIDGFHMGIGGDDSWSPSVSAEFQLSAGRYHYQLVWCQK
G-protein coupled receptor 55, sequence (Q9Y2T6 whole entry): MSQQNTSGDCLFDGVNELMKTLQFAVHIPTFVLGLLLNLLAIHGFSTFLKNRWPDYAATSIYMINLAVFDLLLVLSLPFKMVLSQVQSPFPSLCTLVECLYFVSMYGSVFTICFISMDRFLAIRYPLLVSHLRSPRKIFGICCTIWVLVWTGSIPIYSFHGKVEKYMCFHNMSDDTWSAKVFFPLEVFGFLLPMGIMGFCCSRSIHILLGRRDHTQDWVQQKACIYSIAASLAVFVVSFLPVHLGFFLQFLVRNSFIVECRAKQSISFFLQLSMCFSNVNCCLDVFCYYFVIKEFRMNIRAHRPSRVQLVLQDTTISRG
DNA dC->dU-editing enzyme APOBEC-3G, sequence (Q9HC16 whole entry): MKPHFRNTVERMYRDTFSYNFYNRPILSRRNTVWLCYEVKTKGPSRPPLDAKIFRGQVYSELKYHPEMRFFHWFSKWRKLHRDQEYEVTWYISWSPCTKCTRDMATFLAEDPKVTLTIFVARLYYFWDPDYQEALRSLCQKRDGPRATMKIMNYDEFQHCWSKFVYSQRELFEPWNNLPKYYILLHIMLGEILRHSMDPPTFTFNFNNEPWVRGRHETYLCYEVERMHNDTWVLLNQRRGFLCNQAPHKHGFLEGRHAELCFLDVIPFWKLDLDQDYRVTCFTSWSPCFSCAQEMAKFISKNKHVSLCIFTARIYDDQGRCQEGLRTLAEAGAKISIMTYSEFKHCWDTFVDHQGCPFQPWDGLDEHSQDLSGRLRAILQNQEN
Eukaryotic translation initiation factor 4E, sequence (P63073 whole entry): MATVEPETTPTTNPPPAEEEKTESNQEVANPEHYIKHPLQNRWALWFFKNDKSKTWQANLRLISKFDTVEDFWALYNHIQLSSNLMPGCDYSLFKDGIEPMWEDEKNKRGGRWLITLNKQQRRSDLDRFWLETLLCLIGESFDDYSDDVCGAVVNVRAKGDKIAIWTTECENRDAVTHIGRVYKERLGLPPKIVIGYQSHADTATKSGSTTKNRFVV

SMILES: Cc1ccc(C(=O)Nc2nnc(C3=COCCO3)o2)cc1C
- EC50 [1]: 5.17 µM (active)
- EC50 [2]: 0.421 µM (active)
- CC50 [3]: > 20 µM (active)
- EC50 (Streptococcus): 15.5 µM (active)
- CC50 [4]: > 40 µM (active)
- IC50 (cells): 2.03 µM (active)
- EC50 (Streptokinase A): > 150 µM (not active)

SMILES: O=C(Nc1nc(-c2ccccn2)cs1)Nc1ccc(F)cc1F
- EC50 (Beta-galactosidase): > 40 µM (inactive)
- EC50 [1]: 1.16 µM (active)
- EC50 (Streptococcus): 2.33 µM (active)
- IC50 [5]: 65.9 µM (active)
- EC50 [6]: 8.78 µM (active)
- EC50 [7]: 0.9 µM (active)
- AC50 (INS1): 3.4 µM (active)
- IC50 [8]: 18.8 µM (active)

SMILES: CCN1CCN(c2ccc(S(=O)(=O)N3CCOCC3)cc2NC(=O)c2ccccc2SC)CC1
- EC50 [9]: 0.421 µM (active)

SMILES: COc1cc2ccccc2cc1C(=O)NCC(c1cccs1)N(C)C (configuration not stated)
- EC50 [9]: 0.944 µM (active)

SMILES: Cc1cccc2c1NC(=O)C2=Nc1ccc(Cl)cc1
- EC50 (Beta-galactosidase): > 40 µM (inactive)
- IC50 [8]: 27.9 µM (not active)

SMILES: CN1CCN(S(=O)(=O)c2ccc(NC(=O)Nc3cccc(Cl)c3)cc2)CC1
- IC50 [10]: 13.2 µM (active)
- CC50 [11]: > 40 µM (active)

SMILES: CNS(=O)(=O)c1cccc(C(=O)OCC(=O)c2ccc(S(=O)(=O)N3CCCCC3)cc2)c1
- EC50 (Beta-galactosidase): > 40 µM (inactive)
- IC50 [8]: 18.8 µM (active)

SMILES: Cc1cc(CC(C)C)n(-c2nc3ccccc3c(=O)n2OCC(N)=O)n1
- CC50 [3]: > 20 µM (active)
- CC50 [4]: > 40 µM (active)
- CC50 [12]: > 40 µM (active)
- IC50 (cells): 8.85 µM (active)

SMILES: CCc1ccc(Nc2n[n+](-c3ccccc3)c(/C=C/c3ccccc3)s2)cc1
- AC50 (CAAX prenyl protease 2 [13]): 0.634 µM (active)
- AC50 (CAAX prenyl protease 2 [14]): 23.8 µM (active)
- EC50 [15]: 1.59 µM (active)

SMILES: NC(=O)C1CCCN(CCc2ccccc2)C1 (configuration not stated)
- EC50 [9]: 0.06 µM (active)

SMILES: CC(/C=N\NC(=O)CN1CCN(S(=O)(=O)c2ccc(C)cc2)CC1)=C\c1ccccc1
- AC50 (CAAX prenyl protease 2 [13]): 4.3 µM (active)
- AC50 (CAAX prenyl protease 2 [14]): 59.3 µM (active)
- IC50 [16]: > 64 µM (inactive)

SMILES: CCOC(=O)C(=Cc1c[nH]c2ccc(S(=O)(=O)N(C)C)cc12)C(=O)OCC
- CC50 [17]: 13.4 µM (active)
- IC50 [10]: 15.8 µM (active)
- EC50 [18]: 45.3 µM (active)

— ChEMBL document CHEMBL1201862, “PubChem BioAssay data set” (2004)
